In PubChem BioAssay (NCI):
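Assay format: 96-well plates, 48-hour exposure. GI50: concentration for 50% inhibition of growth. At the TGI there is no net growth.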

Legend:
Assay in all cases: NCI tumour cell line growth inhibition, 48 h
786-0 renal = system: 786-0 renal
A498 renal = system: A498 renal
A549 NSCLC = system: A549 NSCLC
ACHN renal = system: ACHN renal
BT-549 breast = system: BT-549 breast
CAKI-1 renal = system: CAKI-1 renal
COLO 205 colon = system: COLO 205 colon
DU-145 prostate = system: DU-145 prostate
EKVX NSCLC = system: EKVX NSCLC
HCT-116 colon = system: HCT-116 colon
HCT-15 colon = system: HCT-15 colon
HL-60(TB) leukemia = system: HL-60(TB) leukemia
HOP-62 NSCLC = system: HOP-62 NSCLC
HOP-92 NSCLC = system: HOP-92 NSCLC
HS 578T breast = system: HS 578T breast
HT29 colon = system: HT29 colon
IGROV1 ovarian = system: IGROV1 ovarian
K-562 leukemia = system: K-562 leukemia
KM12 colon = system: KM12 colon
LOX IMVI melanoma = system: LOX IMVI melanoma
M14 melanoma = system: M14 melanoma
MALME-3M melanoma = system: MALME-3M melanoma
MCF7 breast = system: MCF7 breast
MDA-MB-231 breast = system: MDA-MB-231 breast
MDA-MB-435 = system: MDA-MB-435
NCI-H226 lung = system: NCI-H226 lung
NCI-H23 lung = system: NCI-H23 lung
NCI-H460 lung = system: NCI-H460 lung
NCI-H522 lung = system: NCI-H522 lung
NCI/ADR-RES ovarian = system: NCI/ADR-RES ovarian
OVCAR-3 ovarian = system: OVCAR-3 ovarian
OVCAR-4 ovarian = system: OVCAR-4 ovarian
OVCAR-5 ovarian = system: OVCAR-5 ovarian
OVCAR-8 ovarian = system: OVCAR-8 ovarian
PC-3 prostate = system: PC-3 prostate
RXF 393 renal = system: RXF 393 renal
SF-268 CNS = system: SF-268 CNS
SF-295 CNS = system: SF-295 CNS
SF-539 CNS = system: SF-539 CNS
SK-MEL-2 melanoma = system: SK-MEL-2 melanoma
SK-MEL-28 melanoma = system: SK-MEL-28 melanoma
SK-MEL-5 melanoma = system: SK-MEL-5 melanoma
SK-OV-3 ovarian = system: SK-OV-3 ovarian
SN12C renal = system: SN12C renal
SNB-19 CNS = system: SNB-19 CNS
SNB-75 CNS = system: SNB-75 CNS
SW-620 colon = system: SW-620 colon
T-47D breast = system: T-47D breast
TK-10 renal = system: TK-10 renal
U251 CNS = system: U251 CNS
UACC-257 melanoma = system: UACC-257 melanoma
UACC-62 melanoma = system: UACC-62 melanoma
UO-31 renal = system: UO-31 renal
CCRF-CEM leukemia = system: CCRF-CEM leukemia
HCC-2998 colon = system: HCC-2998 colon
MOLT-4 leukemia = system: MOLT-4 leukemia
RPMI-8226 leukemia = system: RPMI-8226 leukemia

`CCOC(=O)C1=C(C)NC(=O)NC1c1ccc(N(CCCl)CCCl)cc1Cl` (configuration not stated) showed a TGI (786-0 renal) of 29.2 µM, a TGI (A498 renal) of 29.4 µM and a TGI (A549 NSCLC) of 26.6 µM. For the same molecule, the TGI (ACHN renal) was 27.5 µM, the TGI (BT-549 breast) was 28.9 µM and the TGI (CAKI-1 renal) was 30.9 µM. It also gave a TGI (COLO 205 colon) of 32.6 µM, a TGI (DU-145 prostate) of 32.1 µM and a TGI (EKVX NSCLC) of 45.8 µM. The TGI (HCT-116 colon) was 27.4 µM, the TGI (HCT-15 colon) was 30.8 µM and the TGI (HL-60(TB) leukemia) was 13.4 µM. For the same molecule, the TGI (HOP-62 NSCLC) was 28.5 µM, the TGI (HOP-92 NSCLC) was 25.7 µM and the TGI (HS 578T breast) was 36.1 µM. The TGI (HT29 colon) was 29.5 µM, the TGI (IGROV1 ovarian) was 28.4 µM and the TGI (K-562 leukemia) was 24.3 µM. It also gave a TGI (KM12 colon) of 33.9 µM, a TGI (LOX IMVI melanoma) of 29.4 µM and a TGI (M14 melanoma) of 29.2 µM. For the same molecule, the TGI (MALME-3M melanoma) was 28.1 µM, the TGI (MCF7 breast) was 26.5 µM and the TGI (MDA-MB-231 breast) was 26.5 µM. It also gave a TGI (MDA-MB-435) of 33.1 µM, a TGI (NCI-H226 lung) of 28.8 µM and a TGI (NCI-H23 lung) of 32.7 µM. The TGI (NCI-H460 lung) was 25.6 µM, the TGI (NCI-H522 lung) was 26.4 µM and the TGI (NCI/ADR-RES ovarian) was 30.3 µM. For the same molecule, the TGI (OVCAR-3 ovarian) was 28.8 µM, the TGI (OVCAR-4 ovarian) was 33.1 µM and the TGI (OVCAR-5 ovarian) was 31.8 µM. The TGI (OVCAR-8 ovarian) was 25.6 µM, the TGI (PC-3 prostate) was 28.5 µM and the TGI (RXF 393 renal) was 30.8 µM. It also gave a TGI (SF-268 CNS) of 28.8 µM, a TGI (SF-295 CNS) of 29.2 µM and a TGI (SF-539 CNS) of 30.9 µM. For the same molecule, the TGI (SK-MEL-2 melanoma) was 29.8 µM, the TGI (SK-MEL-28 melanoma) was 31.4 µM and the TGI (SK-MEL-5 melanoma) was 27.8 µM. It also gave a TGI (SK-OV-3 ovarian) of 33.6 µM, a TGI (SN12C renal) of 29.8 µM and a TGI (SNB-19 CNS) of 31.2 µM. The TGI (SNB-75 CNS) was 28.1 µM, the TGI (SW-620 colon) was 31.8 µM and the TGI (T-47D breast) was 19.5 µM. The TGI (TK-10 renal) was 33.6 µM, the TGI (U251 CNS) was 30.2 µM and the TGI (UACC-257 melanoma) was 29.5 µM. The TGI (UACC-62 melanoma) was 22.4 µM and the TGI (UO-31 renal) was 27.3 µM.

`CCOc1cc(F)c([N+](=O)[O-])cc1[N+](=O)[O-]` showed a GI50 (786-0 renal) of 3.77 µM, a TGI (786-0 renal) of 13.9 µM and a GI50 (A498 renal) of 5.81 µM. For the same molecule, the TGI (A498 renal) was 18.2 µM, the GI50 (A549 NSCLC) was 3.68 µM and the TGI (A549 NSCLC) was 14.9 µM. For the same molecule, the GI50 (ACHN renal) was 2.02 µM, the TGI (ACHN renal) was 4.81 µM and the GI50 (BT-549 breast) was 3.12 µM. The TGI (BT-549 breast) was 11.2 µM, the GI50 (CAKI-1 renal) was 1.19 µM and the TGI (CAKI-1 renal) was 2.42 µM. For the same molecule, the GI50 (CCRF-CEM leukemia) was 2.68 µM, the TGI (CCRF-CEM leukemia) was 6.4 µM and the GI50 (COLO 205 colon) was 2.03 µM. The TGI (COLO 205 colon) was 3.88 µM, the GI50 (DU-145 prostate) was 1.99 µM and the TGI (DU-145 prostate) was 4.04 µM. For the same molecule, the GI50 (EKVX NSCLC) was 1.85 µM, the TGI (EKVX NSCLC) was 4.5 µM and the GI50 (HCC-2998 colon) was 1.87 µM. For the same molecule, the TGI (HCC-2998 colon) was 3.31 µM, the GI50 (HCT-116 colon) was 1.64 µM and the TGI (HCT-116 colon) was 2.99 µM. For the same molecule, the GI50 (HCT-15 colon) was 2.71 µM, the TGI (HCT-15 colon) was 9.22 µM and the GI50 (HL-60(TB) leukemia) was 1.77 µM. The TGI (HL-60(TB) leukemia) was 4.81 µM, the GI50 (HOP-62 NSCLC) was 9.35 µM and the TGI (HOP-62 NSCLC) was 21.6 µM. The GI50 (HS 578T breast) was 2.48 µM, the TGI (HS 578T breast) was 7.97 µM and the GI50 (K-562 leukemia) was 3.01 µM. The TGI (K-562 leukemia) was 57 µM, the GI50 (KM12 colon) was 1.81 µM and the TGI (KM12 colon) was 3.49 µM. The GI50 (LOX IMVI melanoma) was 1.66 µM, the TGI (LOX IMVI melanoma) was 3.02 µM and the GI50 (M14 melanoma) was 1.67 µM. For the same molecule, the TGI (M14 melanoma) was 3.03 µM, the GI50 (MCF7 breast) was 0.886 µM and the TGI (MCF7 breast) was 17.3 µM. The GI50 (MDA-MB-231 breast) was 1.99 µM, the TGI (MDA-MB-231 breast) was 4.39 µM and the GI50 (MDA-MB-435) was 2.59 µM. For the same molecule, the TGI (MDA-MB-435) was 7.31 µM, the GI50 (MOLT-4 leukemia) was 2.85 µM and the TGI (MOLT-4 leukemia) was 8.02 µM. The GI50 (NCI-H226 lung) was 2.81 µM, the TGI (NCI-H226 lung) was 8.48 µM and the GI50 (NCI-H23 lung) was 2.42 µM. The TGI (NCI-H23 lung) was 5.56 µM, the GI50 (NCI-H460 lung) was 2.38 µM and the TGI (NCI-H460 lung) was 5.35 µM. For the same molecule, the GI50 (NCI-H522 lung) was 1.5 µM, the TGI (NCI-H522 lung) was 3.24 µM and the GI50 (NCI/ADR-RES ovarian) was 2.88 µM. The TGI (NCI/ADR-RES ovarian) was 8 µM, the GI50 (OVCAR-3 ovarian) was 1.83 µM and the TGI (OVCAR-3 ovarian) was 3.23 µM. For the same molecule, the GI50 (OVCAR-4 ovarian) was 1.92 µM, the TGI (OVCAR-4 ovarian) was 3.48 µM and the GI50 (OVCAR-5 ovarian) was 1.8 µM. It also gave a TGI (OVCAR-5 ovarian) of 4.34 µM, a GI50 (OVCAR-8 ovarian) of 2.57 µM and a TGI (OVCAR-8 ovarian) of 6.64 µM. The GI50 (PC-3 prostate) was 4.63 µM, the TGI (PC-3 prostate) was 18 µM and the GI50 (RPMI-8226 leukemia) was 3.43 µM. It also gave a TGI (RPMI-8226 leukemia) of 11.2 µM, a GI50 (RXF 393 renal) of 1.89 µM and a TGI (RXF 393 renal) of 3.37 µM. The GI50 (SF-268 CNS) was 2.56 µM, the TGI (SF-268 CNS) was 6.46 µM and the GI50 (SF-295 CNS) was 3.19 µM. It also gave a TGI (SF-295 CNS) of 12.8 µM, a GI50 (SF-539 CNS) of 1.85 µM and a TGI (SF-539 CNS) of 3.85 µM. For the same molecule, the GI50 (SK-MEL-2 melanoma) was 1.89 µM, the TGI (SK-MEL-2 melanoma) was 4.4 µM and the GI50 (SK-MEL-28 melanoma) was 2.5 µM. For the same molecule, the TGI (SK-MEL-28 melanoma) was 6.12 µM, the GI50 (SK-MEL-5 melanoma) was 2.99 µM and the TGI (SK-MEL-5 melanoma) was 8.4 µM. It also gave a GI50 (SK-OV-3 ovarian) of 14.5 µM, a TGI (SK-OV-3 ovarian) of 27.6 µM and a GI50 (SN12C renal) of 2 µM. It also gave a TGI (SN12C renal) of 4.32 µM, a GI50 (SNB-19 CNS) of 3.82 µM and a TGI (SNB-19 CNS) of 13.3 µM. For the same molecule, the GI50 (SNB-75 CNS) was 3.58 µM, the TGI (SNB-75 CNS) was 14.1 µM and the GI50 (SW-620 colon) was 1.78 µM. It also gave a TGI (SW-620 colon) of 3.3 µM, a GI50 (T-47D breast) of 3.31 µM and a TGI (T-47D breast) of 14.7 µM. For the same molecule, the GI50 (TK-10 renal) was 2.91 µM, the TGI (TK-10 renal) was 10.1 µM and the GI50 (U251 CNS) was 1.69 µM. The TGI (U251 CNS) was 3.24 µM, the GI50 (UACC-257 melanoma) was 1.6 µM and the TGI (UACC-257 melanoma) was 3.23 µM. The GI50 (UACC-62 melanoma) was 1.73 µM and the TGI (UACC-62 melanoma) was 3.75 µM.
